Data set [1] has as its system HIV-1. Put plainly: in-vitro anti-HIV assay: inhibition of HIV-induced cytopathic effect in MT-4 cells (MTT). It is filed as cell-based. Conditions: for SI (selectivity index, ratio of CD50 to ED50): CD50/ED50, MT-4 cells; for EC50: Human immunodeficiency virus 1, MT4, HIV-infected MT-4 cells, cytopathic effect, MTT, 540 nm, read-out: ED50 (dose achieving 50% protection). The protocol: (§1) A rapid, sensitive and automated assay procedure was used for the in-vitro evaluation of anti-HIV agents. An […] T4-cell line, MT-4, which was previously shown (Koyanagi et al., Int. J. Cancer, 36, 445-451, 1985) to be highly susceptible to and permissive for HIV infection, served as the target cell line. Inhibition of the HIV-induced cytopathic effect was used as the end point. The viability of both HIV-and mock-infected cells was assessed spectrophotometrically via the in-situ reduction of 3-(4,5-dimethylthiazol-2-yl)-2,5-diphenyltetrazolium bromide (MTT). The 50% cytotoxic dose (CD50 in μg/ml) was defined as the concentration of compound that reduced the absorbance of the mock-infectedcontrol sample by 50%. The percent protection achieved by the compound in HIV-infected cells was calculated by the following formula: [formula] whereby (ODT)HIV is the optical density measured with a given concentration of the test compound in HIV-infected cells; (ODC)HIV is the optical density measured for the control untreated HIV-infected cells; (ODC)MOCK is the optical density measured for the control untreated mock-infected cells; all optical density values were determined at 540 nm. The dose achieving 50% protection according to the above formula was defined as the 50% effective dose (ED50 in μg/ml). The ratio of CD50 to ED50 was defined as the selectivity index (SI).
In general terms: Protection from cytopathic effect is a common read-out in antiviral testing.

Data set [2] is described as follows: in vitro. Format: cell-based. Particulars: human, mt-4 cells. As to the method:
as §1

Values after ≈ are worked out from the molar mass of the structure shown. Some results are limits rather than exact numbers.

The term CC50 denotes the concentration that lowers cell viability or growth by half.

For the molecule `NC(=O)C(Nc1ccccc1[N+](=O)[O-])c1c(Cl)cccc1Cl` (single isomer, unassigned; (-)) [Compound 25, (-)-2,6-dichloro-α-[(2-nitrophenyl)amino]benzeneacetamide], in data set [1], the “SI (selectivity index, ratio of CD50 to ED50)” value is on record as ~ 1600 and the EC50 is 0.018 µg/mL (≈ 0.0529 µM). In data set [2], this molecule yielded a CC50 of 29 µg/mL (≈ 85.3 µM).
For the molecule `Cc1ccc([N+](=O)[O-])c(NC(C(N)=O)c2c(Cl)cccc2Cl)c1` (stereo not drawn) [Compound 26], in data set [1], the “SI (selectivity index, ratio of CD50 to ED50)” value is ≥ 4400 and the EC50 was 0.057 µg/mL (≈ 0.161 µM). The CC50 in data set [2] was > 250 µg/mL.
In the same order, the values of `Cc1ccc([N+](=O)[O-])c(NC(C(N)=O)c2c(Cl)cccc2Cl)c1` (single isomer, unassigned) [Compound 29, (-)-α-[(5-methyl-2-nitrophenyl)amino]-2,6-dichlorobenzeneacetamide] are ~ 1550, 0.0032 µg/mL (≈ 0.00903 µM) and 5 µg/mL (≈ 14.1 µM).
In the same order, the values of `Cc1cc(NC(C(N)=O)c2c(Cl)cccc2Cl)c([N+](=O)[O-])cc1C` (stereo not drawn) [Compound 24] are ~ 2100, 0.077 µg/mL (≈ 0.209 µM) and 160 µg/mL (≈ 435 µM).
On the same counts, the results for `CC(=O)c1ccc(Cl)cc1NC(C(N)=O)c1c(Cl)cccc1Cl` (stereo not drawn) [Compound 30, α-[(2-acetyl-5-chlorophenyl)amino]-2,6-dichlorobenzeneacetamide] are ~ 18000, 0.011 µg/mL (≈ 0.0296 µM) and 200 µg/mL (≈ 538 µM).
Consider `CC(=O)c1ccccc1NC(C(N)=O)c1c(Cl)cccc1Cl` (single isomer, unassigned) [Compound 23, (-)-α-[(2-acetylphenyl)amino]-2,6-dichlorobenzeneacetamide], for which, in data set [1], the “SI (selectivity index, ratio of CD50 to ED50)” value was ~ 3000 and the EC50 was 0.0066 µg/mL (≈ 0.0196 µM). Moreover, the CC50 in data set [2] came out at 20 µg/mL (≈ 59.3 µM).
In the same order, the values of `Cc1cc(C)c([N+](=O)[O-])c(NC(C(N)=O)c2c(Cl)cccc2Cl)c1` (stereo not drawn) [Compound 27] are ~ 100, 0.049 µg/mL (≈ 0.133 µM) and 5 µg/mL (≈ 13.6 µM).
On the same counts, the results for `Cc1cc(NC(C(N)=O)c2c(Cl)ccc(Cl)c2Cl)c([N+](=O)[O-])cc1C` (stereo not drawn) [Compound 28] are ~ 140, 0.07 µg/mL (≈ 0.174 µM) and 10 µg/mL (≈ 24.8 µM).
In the same order, the values of `CC(=O)c1ccccc1NC(C(N)=O)c1c(Cl)cccc1Cl` (racemic) [Compound 22, (±)-α[(2-acetylphenyl)amino]-2,6-dichlorobenzeneacetamide] are ~ 2700, 0.013 µg/mL (≈ 0.0386 µM) and 35 µg/mL (≈ 104 µM).
With `NC(=O)C(Nc1ccccc1[N+](=O)[O-])c1c(Cl)cccc1Cl` (stereo not drawn) [Compound 15, 2-(2,6-dichlorophenyl)-2-[(2-nitrophenyl)amino]acetamide], in data set [1], the “SI (selectivity index, ratio of CD50 to ED50)” value is ~ 1000 and the EC50 came out at 0.02 µg/mL (≈ 0.0588 µM). The molecule further came in with a CC50 in data set [2] of 20 µg/mL (≈ 58.8 µM).

The values above are taken from patent US5556886A, “HIV-inhibiting benzeneacetamide derivatives” (Janssen Pharmaceutica N.V., priority 1990, dated 1996).
